Read-outs that look alike come from different tables or passages of the source.
Legend:
Assay type in all cases: in vivo
[1] = system: wheat; assay: Post-emergence herbicidal activity against cereal crops (wheat) +/- safener, crop selectivity; settings: 100%=total damage to plant, 0%=no damage; for Post-emergence herbicidal activity against wheat (percentage phytotoxicity), +CQC: 250 g/ha, plus safener cloquintocet-mexyl (CQC) applied at 50 g/ha; for percent phytotoxicity (crop damage) to wheat at 250 g/ha: Triticum aestivum, 360 h, without safener, read-out: Post-emergence herbicidal activity against wheat (percentage phytotoxicity), Wheat - CQC
Procedure, shortened: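 Test plants raised in pots in a glasshouse (24/18 °C warm or 20/16 °C cool species day/night, 16 h light, 65% humidity) and treated post-emergence about 12 days after sowing. Visual percentage phytotoxicity scored 15 days after application (0% = no damage, 100% = total damage).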

[2] = system: Echinochloa crus-galli (ECHCG); assay: Glasshouse assay for herbicidal activity, pre-/post-emergence (percentage phytotoxicity); settings: Echinochloa crus-galli, Rate 250 g/ha, 100%=total damage, 0%=no damage
Procedure, shortened: (§1)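 Seeds sown in standard soil in pots, grown 1 day (pre-emergence) or ~12 days (post-emergence) before treatment. Glasshouse: warm species 24/18 °C, cool species 20/16 °C day/night, 16 h light, 65% humidity, watered twice daily. Visual phytotoxicity scored 15DAA (post) or 20DAA (pre); 0% none, 100% total damage.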

[3] = system: Alopecurus myosuroides (ALOMY); assay: as above; settings: Alopecurus myosuroides, Rate 250 g/ha, 100%=total damage, 0%=no damage
Procedure, shortened: as §1

[4] = system: Lolium perenne (LOLPE); assay: as above; settings: Lolium perenne, Rate 250 g/ha, 100%=total damage, 0%=no damage
Procedure, shortened: as §1

[5] = system: Avena fatua (AVEFA); assay: as above; settings: Avena fatua, Rate 250 g/ha, 100%=total damage, 0%=no damage
Procedure, shortened: as §1

[6] = post-emergence, 360 h, post-emergence, visual assessment 15 DAA, read-out: Post-emergence herbicidal activity (percentage phytotoxicity), ECHCG POST
[7] = pre-emergence, 480 h, pre-emergence, visual assessment 20 DAA, read-out: Pre-emergence herbicidal activity (percentage phytotoxicity), ECHCG PRE
[8] = 360 h, post-emergence, visual assessment 15 DAA, read-out: Post-emergence herbicidal activity (percentage phytotoxicity), ALOMY POST
[9] = 480 h, pre-emergence, visual assessment 20 DAA, read-out: Pre-emergence herbicidal activity (percentage phytotoxicity), ALOMY PRE
[10] = post-emergence, 360 h, post-emergence, visual assessment 15 DAA, read-out: Post-emergence herbicidal activity (percentage phytotoxicity), LOLPE POST
[11] = pre-emergence, 480 h, pre-emergence, visual assessment 20 DAA, read-out: Pre-emergence herbicidal activity (percentage phytotoxicity), LOLPE PRE
[12] = post-emergence, 360 h, post-emergence, visual assessment 15 DAA, read-out: Post-emergence herbicidal activity (percentage phytotoxicity), AVEFA POST
[13] = pre-emergence, 480 h, pre-emergence, visual assessment 20 DAA, read-out: Pre-emergence herbicidal activity (percentage phytotoxicity), AVEFA PRE

Row | Structure (SMILES) | Post-emergence herbicidal activity against wheat (percentage phytotoxicity), +CQC [1] | percent phytotoxicity (crop damage) to wheat at 250 g/ha [1] | pest or weed control at 250 g/ha [2, 6] | pest or weed control at 250 g/ha [2, 7] | pest or weed control at 250 g/ha [3, 8] | pest or weed control at 250 g/ha [3, 9] | pest or weed control at 250 g/ha [4, 10] | pest or weed control at 250 g/ha [4, 11] | pest or weed control at 250 g/ha [5, 12] | pest or weed control at 250 g/ha [5, 13]
1 | Cc1cc(C)c(C2C(=O)CC(CCNC(=O)Nc3cc(C(F)(F)F)ccn3)C2=O)c(C)c1.Cl (stereo not shown) [Compound A2, 1-[2-[2,4-dioxo-3-(2,4,6-trimethylphenyl)cyclopentyl]ethyl]-3-[4-(trifluoromethyl)-2-pyridyl]urea] | 80% | 80% | 100% | 90% | 80% | 70% | 100% | 80% | 100% | 80%
2 | Cc1cc(C)c(C2C(=O)CC(CCNC(=O)Nc3ccccn3)C2=O)c(C)c1.Cl (stereo not shown) [Compound A3] | 60% | 90% | 100% | 100% | 100% | 100% | 100% | 90% | 90% | 80%
3 | Cc1cc(C)c(C2C(=O)CC(CCNC(=O)N(C)C)C2=O)c(C)c1 (stereo not shown) [Compound A31] | 10% | 70% | 70% | 90% | 90% | 80% | 90% | 100% | 90% | 70%
4 | Cc1cc(C)c(C2C(=O)CC(CCNC(=S)NC(=O)c3ccccc3)C2=O)c(C)c1 (stereo not shown) [Compound A91] | 70% | 70% | 0% | 70% | 80% | 60% | 70% | 70% | 10% | 60%
5 | Cc1cc(C)c(C2C(=O)CC(CCNC(=O)NC(=O)c3ccc(F)c(F)c3)C2=O)c(C)c1 (stereo not shown) [Compound A56] | 70% | 80% | 80% | 60% | 80% | 70% | 90% | 80% | 80% | 40%
6 | Cc1cc(C)c(C2C(=O)CC(CCNC(=O)NC(=O)c3ccccc3F)C2=O)c(C)c1 (stereo not shown) [Compound A54] | 80% | 90% | 100% | 80% | 100% | 60% | 100% | 80% | 100% | 60%
7 | Cc1cc(C)c(C2C(=O)CC(CCNC(=O)NC(=O)c3ccccc3Cl)C2=O)c(C)c1 (stereo not shown) [Compound A49] | 90% | 90% | 100% | 100% | 100% | 90% | 100% | 90% | 100% | 80%

Reference: patent US10301295B2, “Herbicidal compounds” (Syngenta Participations AG, priority 2014, dated 2019)
